Laboratory results reported in US7202216B2 (The Board of Trustees of the Leland Stanford Junior …, priority 2002, dated 2007).
Where no end group is shown, it is not given here.

Key:
[1] = BBM fractions prepared from rat small intestinal mucosa
[2] = Amount of peptides digested after 15 hours (Table 1, samples H1P0-H5P0); assay type: in vitro ADME
[3] = test system: small intestinal brush-border membrane (BBM) enzymes; experiment: Brush-border membrane (BBM) digestion of gliadin peptides; conditions: 12 ng/μl BBM protein, rat small intestinal mucosa
[4] = test system: gastric and pancreatic proteases (pepsin, trypsin, chymotrypsin, elastase, carboxypeptidase)
[5] = biological target: T1, tissue transglutaminase (tTGase) (Homo sapiens, UniProt P21980); conditions: vs natural substrate fibrinogen; cited from earlier work
T1 sequence (P21980 1-687): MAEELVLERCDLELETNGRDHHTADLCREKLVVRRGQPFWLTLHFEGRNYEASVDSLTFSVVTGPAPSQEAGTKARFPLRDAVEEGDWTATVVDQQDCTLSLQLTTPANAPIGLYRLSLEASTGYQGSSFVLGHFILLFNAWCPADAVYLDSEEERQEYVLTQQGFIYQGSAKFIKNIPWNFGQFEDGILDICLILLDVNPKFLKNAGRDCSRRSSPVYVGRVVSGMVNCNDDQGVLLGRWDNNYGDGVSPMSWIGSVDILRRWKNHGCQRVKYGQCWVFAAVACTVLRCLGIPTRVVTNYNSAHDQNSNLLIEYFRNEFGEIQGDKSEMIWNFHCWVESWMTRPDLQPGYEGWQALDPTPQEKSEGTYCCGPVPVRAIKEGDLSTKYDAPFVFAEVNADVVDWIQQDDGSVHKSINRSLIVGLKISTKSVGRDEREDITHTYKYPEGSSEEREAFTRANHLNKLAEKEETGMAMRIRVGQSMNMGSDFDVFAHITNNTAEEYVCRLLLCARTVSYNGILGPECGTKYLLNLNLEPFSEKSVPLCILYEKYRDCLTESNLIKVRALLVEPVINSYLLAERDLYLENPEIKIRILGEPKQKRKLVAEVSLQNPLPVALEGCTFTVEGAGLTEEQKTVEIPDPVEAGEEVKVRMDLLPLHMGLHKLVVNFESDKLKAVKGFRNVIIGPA

| Sequence | not cleaved [1] | Amount of Peptides Digested after 15 hours ([2]; sample H1P0) [%] | Amount of Peptides Digested after 15 hours ([2]; sample H2P0) [%] | Amount of Peptides Digested after 15 hours ([2]; sample H3P0) [%] | Amount of Peptides Digested after 15 hours ([2]; sample H4P0) [%] | Amount of Peptides Digested after 15 hours ([2]; sample H5P0) [%] | half-life of digestion [3] [h] | stability on prolonged exposure to proteases [4] | specificity of tTGase relative to its target peptide sequence in fibrinogen [5] [fold] |
| --- | --- | --- | --- | --- | --- | --- | --- | --- | --- |
| LQLQPFPQPQLPYPQPQLPYPQPQLPYPQPQPF | half-life of digestion >20 h; remains intact | – | – | – | – | – | – | – | – |
| LQLQPFPQPQLPYPQPQLPYPQPQLPYPQPQPF [33-mer] | – | <20 | <20 | <20 | <20 | <20 | > 20 | remained intact | – |
| PQPQLPYPQPQLPY (listed as Triticum aestivum) [α-gliadin derived tTGase substrate peptide] | – | – | – | – | – | – | – | – | 5 |
| QLQPFPQPQLPY [Control A] | – | >90 | >61 | >87 | >96 | >96 | – | – | – |
| WQIPEQSR [Control B] | – | >90 | >85 | >95 | >95 | >95 | – | – | – |
